Like-named read-outs stand apart in the source and are kept apart here. Blank lines part the entries; values can stand above or below the compound they belong to.
How the values were obtained:
[1] = system: nucleoside hydrolase from Leishmania (L.) donovani; parameters: method as in PMID 11738828; details: NH cloned in pET-22; cited from earlier work
NH of L. (L.) major = system: NH of L. (L.) major; parameters: method as in PMID 10409664; details: ref 13; cited from earlier work
[2] = system: Nucleoside hydrolase NH36 of L. (L.) donovani; format: biochemical, Leishmania (L.) donovani; details: substrate of NH36; for k cat /K m: catalytic efficiency; for K m / k cat: 25°C, 50 mM Hepes pH 7.4
Protocol: (§1) BL21DE3 E.coli were transformed with the synthetic plasmid pET 28b encoding the gene of NH36 of Leishmania (L.) donovani (EMBL, Genbank and DDJB data bases, access number AY007193) with a His6tag at the C-terminal. Expression was induced with 0.5 mM IPTG and overnight incubation at 20°C. Purification of NH36 was performed on a column of Ni-NTA Superflow resin (Qiagen, USA) eluted by a stepwise imidazole gradient and monitored by SDS-polyacrylamide gel electrophoresis and protein assay. The extinction coefficient of NH36 is 21.437 mM^-1 cm^-1 at 280 nm, as calculated with the ProtParam program from ExPASy, and was used to estimate protein concentration (http://ca.expasy.org/seqanalref/). The yield of NH36 after purification was 11.87 mg per Liter of bacterial growth culture. Non-specific His-proteins with weak interactions were eluted with 50–100 mM imidazole (S1 Fig). The purified NH36 started to elute with 150 mM imidazole. We used 250 mM of imidazol in elution buffer for purification of NH36.
Steady-state kinetic rates for NH36 were determined on the substrates inosine, guanosine, adenosine, uridine and cytidine. Hypoxanthine and adenine formation were coupled to xanthine oxidase (12.9 mM^-1 cm^-1 at 293 nm and 15.2 mM^-1 cm^-1 at 305 nm, respectively), and the others were followed by direct uv absorbance changes resulting from cleavage of the N-ribosidic bond. Reaction mixtures contained 50 mM Hepes (pH 7.4), 100 mM NaCl and 5 mM of DTT. One unit, and 0.1 unit of xanthine oxidase (XOD) were used as the coupling enzyme to the adenosine and inosine assays, respectively. Spectral changes for hydrolysis of guanosine, uridine and cytidine were 5.4 mM^-1 cm^-1 at 257 nm,1.8 mM^-1 cm^-1 at 280 nm and 1.8 mM^-1 cm^-1 at 288 nm, respectively. Variable concentrations of substrate and appropriate amounts of purified NH36 were added in all assays. The hydrolysis of nucleosides to bases and ribose was followed by continuous recording of optical absorbance after addition of the enzyme, in a CARY 300 UV-visible spectrophotometer. Control rates with no enzyme addition were subtracted from initial rates. Reactions with substrates were conducted at 25°C using 1 cm path length cuvettes containing 1 mL reaction volumes. Kinetic parameters of NH36 were obtained by fitting initial rates to the Michaelis−Menten equation using GraFit 5 (Erithacus Software).

[3] = system: L. (L.) infantum chagasi promastigotes; assay: Transmission electron microscopy of treated promastigotes; format: cell-based, Leishmania (L.) infantum chagasi; details: 10 μM, 72 h
From the text: The cells were washed with Milli Q water, dehydrated in increasing concentration of acetone and embedded in Epon (1: 1) (PolyBed 812). The ultrathin sections were obtained, contrasted with 5% uranyl acetate and lead citrate and observed under a Joel 1200 electron microscope.

[4] = Macrophage viability and cytotoxicity (Trypan Blue); details: female, BALB/c, mouse, peritoneal macrophages
Protocol: (§2) Alternatively, the immucillins were added at 0, 24 and 48 h and viability assessed after 72h. […] The amastigote growth was assessed 24 h after the last drug addition, on 200 cells in Giemsa stained coverslips and expressed as phagocytic index = percent of infected macrophages x average number of intracellular amastigotes. […] All experiments with mice were reviewed and approved by the Animal Care and Use Committee of the Instituto de Biofísica Carlos Chagas Fo.-UFRJ (CAUAP-CONCEA, Brazil, IMPPG-016) and were performed according to the guidelines of the National Institutes of Health, USA. We made all efforts in order to minimize animal suffering.

[5] = system: intracellular amastigotes of L. (L.) infantum chagasi; assay: Replication of intracellular amastigotes in infected peritoneal macrophages (phagocytic index); format: cell-based, Leishmania (L.) infantum chagasi; details: for EC50: drugs (0.5–10 μM) added at 0 h, incubation 24 h, linear interpolation, read-out: EC50 (CI 95%)
Protocol: as §2, with “Alternatively, the immucillins were added at 0, 24 and 48 h and viability assessed after 72h.” left out

[6] = target: T1, Nucleoside hydrolase NH36 (Leishmania donovani, UniProt Q8WQX2); assay: Ki determination: inhibition of NH36 activity by immucillins; format: biochemical, Leishmania (L.) donovani; details: 10 mM inosine as substrate, 0.5 nM NH36, pH 7.4, room temperature
T1 sequence (Q8WQX2 1-314): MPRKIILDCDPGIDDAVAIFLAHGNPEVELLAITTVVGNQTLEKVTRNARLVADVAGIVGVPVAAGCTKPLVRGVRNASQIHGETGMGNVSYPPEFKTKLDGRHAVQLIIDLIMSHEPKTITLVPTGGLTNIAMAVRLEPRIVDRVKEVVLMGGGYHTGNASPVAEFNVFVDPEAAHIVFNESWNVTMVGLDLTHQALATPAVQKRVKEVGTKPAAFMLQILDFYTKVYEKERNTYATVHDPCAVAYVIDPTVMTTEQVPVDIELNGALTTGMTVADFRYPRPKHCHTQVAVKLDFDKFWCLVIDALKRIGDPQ
Protocol: as §1
The reaction mixtures contained 10 mM inosine as substrate, 50 mM Hepes (pH 7.4), 100 mM KCl, 5 mM DTT and 1 unit XOD. The hydrolysis of inosine to hypoxanthine and ribose was followed by continuous reading of optical absorbance at 293 nm, using variable concentrations of inhibitors in a CARY 300UV-visible spectrophotometer. Controls without enzyme and without inhibitors were included in all inhibition assays. The inhibition constant for each immucillin was obtained, using GraFit 5 (Erithacus Software), by fitting initial rates with variable inhibitor concentrations to the equation (vi/v0 = [S] / Km + [S] + Km[I] / Ki), where v i is the initial rate in the presence of the inhibitor, v 0 is the initial rate in the absence of the inhibitor, K m is the Michaelis constant for inosine, [S] and [I] are inosine and inhibitor concentrations, respectively, and Ki is the inhibition constant.

[7] = system: L. (L.) infantum chagasi promastigotes; assay: In vitro growth of promastigotes in FBS supplemented Schneider's insect medium; format: cell-based, Leishmania (L.) infantum chagasi
From the text: The strain of Leishmania (L.) infantum chagasi MHOM/BR/1974/PP75 was obtained from the Leishmania Type Culture Collection (Fundacão Oswaldo Cruz, Rio de Janeiro, RJ, Brazil) and the strain of Leishmania (L.) amazonensis (MHOM/BR/1975/Josefa) was kindly given by Professor Rosâ[…] from Universidade Federal do Rio de Janeiro. Promastigotes were maintained by weekly transfers in screw-capped glass tubes containing Schneider's insect medium (Sigma Aldrich, MO, USA), pH 7.0, supplemented with 10% Fetal Bovine Serum (FBS) at 26°C. […] Log phase promastigotes of L. (L.) infantum chagasi and L. […] Promastigotes were recorded in a Neubauer chamber after 24, 48, 72 and 96 hours of incubation at 26°C. […] The concentration of adenosine in Schneider s insect serum supplemented medium was assessed by HPLC using a C-18 reverse-phase column as described.

[8] = system: L. (L.) amazonensis promastigotes; assay: as above; format: cell-based, Leishmania (L.) amazonensis; details: Leishmania amazonensis
From the text: The strain of Leishmania (L.) infantum chagasi MHOM/BR/1974/PP75 was obtained from the Leishmania Type Culture Collection (Fundacão Oswaldo Cruz, Rio de Janeiro, RJ, Brazil) and the strain of Leishmania (L.) amazonensis (MHOM/BR/1975/Josefa) was kindly given by Professor Rosâ[…] from Universidade Federal do Rio de Janeiro. Promastigotes were maintained by weekly transfers in screw-capped glass tubes containing Schneider's insect medium (Sigma Aldrich, MO, USA), pH 7.0, supplemented with 10% Fetal Bovine Serum (FBS) at 26°C. Stock solutions (20 mM) of immucillins IA […] prepared using Milli-Q purified water. Log phase promastigotes of L. (L.) infantum chagasi and L. […] Promastigotes were recorded in a Neubauer chamber after 24, 48, 72 and 96 hours of incubation at 26°C. […] We also assayed the possibility of reversing the inhibitory effect of IA in RPMI medium by the addition of adenosine to the culture medium. The concentration of adenosine in Schneider s insect serum supplemented medium was assessed by HPLC using a C-18 reverse-phase column as described.

[9] = system: strains of L. (L.) infantum chagasi; parameters: method as in PMID 23747751; details: cited from earlier work
[10] = system: amastigotes of L. (L.) amazonensis; parameters: method as in PMID 18660990; details: ref 43; read-out: IC50 against amastigotes; cited from earlier work
[11] = system: intracellular amastigotes of L. (L.) infantum chagasi; details: cited from earlier work
[12] = single 10 μM dose at 0 h, compared to untreated controls

Compound: O=c1[nH]cnc2c1ncn2[C@@H]1O[C@H](CO)[C@@H](O)[C@H]1O [Inosine]
k cat [1]: 7.6 s⁻¹
k cat (NH of L. (L.) major): 119 s⁻¹
k cat /K m [2]: 31800 M⁻¹ s⁻¹
K m [2]: 340 ± 30 µM
k cat [2]: 10.8 ± 0.3 s ^-1

EC50 ([5]; Leishmania infantum, Peritoneal macrophage): 7.1 µM
Ki [6]: > 5 µM
Compound: O=c1[nH]cnc2c(CNC(CO)CO)c[nH]c12 [SMIH]
effect on cellular ultrastructure of promastigotes [3]: complete alteration of their cellular morphology with intense cytoplasm vacuolization, enlarged vesicles and alterations in the kinetoplasts
CC50 at 48 h [4]: 800 µM
reduction in the number of intracellular amastigotes ([5]; 10 μM added daily at 0, 24 and 48 h): 95%
decrease of intracellular amastigote parasite load ([5]; low micromolar concentrations, single to daily protocol): 74–95%
reduction in the number of intracellular amastigotes [5, 12]: 70%
IC50 ([7]; Leishmania infantum, drugs added at 0, 24 and 48 h, after 48h, read-out: IC50 on promastigote growth, daily addition): 1 nM
IC50 ([7]; Leishmania infantum, drugs added at 0, 24 and 48 h, at 72 and 96 h, read-out: IC50 on promastigote growth, daily addition): < 0.01 nM
IC50 ([7]; Leishmania infantum, single addition at 0 h, evaluated after 48 hours, 26°C, read-out: IC50 (CI 95%) on L. (L.) infantum chagasi promastigotes in vitro growth): 8 nM
inhibition at 0.05 µM ([7]; Leishmania infantum, 50 nM, after 96 h of culture, read-out: percent inhibition on L. (L.) infantum chagasi promastigote growth): 99%
reduction of the IC50 by daily addition compared to single addition ([7]; daily addition (0, 24, 48 h) vs single addition (Table 2), 48 h): 88%
inhibition at 0.05 µM ([8]; 50 nM, after 96 h of culture, read-out: percent growth inhibition on L. (L.) amazonensis): 61%
inhibition at 500 µM ([8]; 500 μM, after 96 h of culture, read-out: percent inhibition on L. (L.) amazonensis replication): 71%
IC50 ([8]; single addition at 0 h, evaluated after 48 hours, 26°C, read-out: IC50 (CI 95%) on L. (L.) amazonensis promastigotes in vitro growth): 0.007 µM

Compound: O=c1ccn([C@@H]2O[C@H](CO)[C@@H](O)[C@H]2O)c(=O)[nH]1 [Uridine]
k cat [1]: 9.5 s⁻¹
k cat (NH of L. (L.) major): 32 s⁻¹
k cat /K m [2]: 16000 M⁻¹ s⁻¹
K m [2]: 2,100 ± 561 μM
k cat [2]: 34.3 ± 4.2 s ^-1

Compound: Glucantime
EC50 [5]: 7.1 µM
reduction in the number of intracellular amastigotes [5, 12]: 70%
IC50 ([9]; Leishmania strains isolated from dogs): 20000 to 32300 µM
IC50 ([9]; human strains of L. (L.) infantum chagasi): 430 to 5760 µM
IC50 [10]: 62.6 µM
IC50 ([11]; ref 43, read-out: IC50 against replication of amastigotes): 348 µM
IC50 ([11]; ref 44, read-out: IC50 against intracellular amastigotes): 1420 µM
IC50 ([11]; ref 45, read-out: IC50 against intracellular amastigotes): 31.1 µM

— article PMC4409337, “Immucillins Impair Leishmania (L.) infantum chagasi and Leishmania (L.) amazonensis Multiplication In Vitro” (PLoS ONE, 2015)
